Counter-ions that a name gives are not always drawn.
Legend:
5-HT1A receptors = molecular target: T1, 5-HT1A receptors (Bos taurus, UniProt F6Q2H9); experiment: Affinity for the 5-HT1A receptor (3H-ipsapirone binding, calf hippocampus membranes)
T1 construct: measured in calf hippocampus membranes; from tissue; host or cells: calf hippocampus membranes
T1 sequence (F6Q2H9 1-422): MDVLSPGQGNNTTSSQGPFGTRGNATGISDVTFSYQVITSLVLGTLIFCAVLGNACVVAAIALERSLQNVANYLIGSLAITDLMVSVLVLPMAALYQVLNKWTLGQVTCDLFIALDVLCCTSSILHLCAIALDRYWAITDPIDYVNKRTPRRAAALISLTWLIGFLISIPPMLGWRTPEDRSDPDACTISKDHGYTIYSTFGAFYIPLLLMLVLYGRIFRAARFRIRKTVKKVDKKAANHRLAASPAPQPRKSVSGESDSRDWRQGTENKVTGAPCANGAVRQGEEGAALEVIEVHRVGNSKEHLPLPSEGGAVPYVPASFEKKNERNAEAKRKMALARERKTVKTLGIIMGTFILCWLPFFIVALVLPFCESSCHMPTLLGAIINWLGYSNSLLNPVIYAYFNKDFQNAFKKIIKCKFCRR
Method: 2.) Affinity for the 5-HT1A receptor [W. U. Dompert et al., Naunyn-Schmiedeberg's Arch Pharmacol. (1985), 328, 467-470].
In this test, the binding of ^3 H-ipsapirone to 5-HT1A receptors is measured in calf hippocampus membranes.
In the binding tests under 1) and 2), IC50 values are determined which indicate at which concentration of test substance 50% of the binding of the radioligand is displaced. Taking into account the dissociation constants and the concentration of radioligand, the inhibition constants Ki are calculated from this.

[1] = test system: permanent focal cerebral ischaemia (MCA-O); experiment: Permanent focal cerebral ischaemia (middle cerebral artery occlusion, MCA-O) in rats; assay type: in vivo; details: rat, continuous infusion 4 hours after occlusion, assessed 7 days after operation
From the text: Animal model: permanent focal cerebral ischaemia ("middle cerebral artery occlusion"=MCA-O). MCA occlusion in rodents is a widely accepted animal model of stroke. Reference: Bederson, J. B. et al., Stroke, 17:472-476 (1986).
In order to produce permanent focal cerebral ischaemia, the left medial cerebral artery in rats is occluded by electrocoagulation. The resulting infarct volume in cortical (subcortical) regions which are supplied by the medial cerebral artery is used as a measure of the extent of the stroke-induced neuronal damage. Administration of substance: after occlusion as a continuous i.v. infusion (4 hours) of the test substance, beginning directly after operation. The animals are sacrificed for assessment 7 days after operation.

5-HT1 receptor = experiment: Affinity for the 5-HT1 receptor (3H-serotonin binding, calf hippocampus membranes); details: calf hippocampus membrane preparations
Method: The values indicated are data which were determined from receptor binding studies using calf hippocampus membrane preparations. The radiolabelled ligand used for this purpose was ^3 H-serotonin. In the binding tests under 1) and 2), IC50 values are determined which indicate at which concentration of test substance 50% of the binding of the radioligand is displaced. Taking into account the dissociation constants and the concentration of radioligand, the inhibition constants Ki are calculated from this.

| Ki (5-HT1A receptors) | Ki (5-HT1 receptor) | SMILES | % Reduction of the infarct volume ([1]; 0.001 mg/kg i.v.) | % Reduction of the infarct volume ([1]; 0.01 mg/kg i.v.) | % Reduction of the infarct volume ([1]; 0.1 mg/kg i.v.) | % Reduction of the infarct volume ([1]; 0.003 mg/kg i.v.) |
| --- | --- | --- | --- | --- | --- | --- |
| – | 2.8 nM | CC(C)(Cl)COc1cccc2c1OC(CNCCCCN1C(=O)c3ccccc3S1(=O)=O)CC2 (racemic) [Example 4] | – | – | – | – |
| 1.8 nM | – | CC(C)(Cl)COc1cccc2c1OC(CNCCCCN1C(=O)c3ccccc3S1(=O)=O)CC2 (single isomer, unassigned) [Example 3] | 37% | 47% | – | 34% |

The remaining lines, values behind:

| SMILES | Ki (5-HT1A receptors) | Ki (5-HT1 receptor) | % Reduction of the infarct volume ([1]; 0.001 mg/kg i.v.) | % Reduction of the infarct volume ([1]; 0.01 mg/kg i.v.) | % Reduction of the infarct volume ([1]; 0.1 mg/kg i.v.) | % Reduction of the infarct volume ([1]; 0.003 mg/kg i.v.) |
| --- | --- | --- | --- | --- | --- | --- |
| CC(C)Oc1cccc2c1OC(CNCCCCN1C(=O)c3ccccc3S1(=O)=O)CC2 (single isomer, unassigned) [Example 2] | 0.5 nM | – | 36% | 48% | 32% | – |
| CC(C)Oc1cccc2c1OC(CNCCCCN1C(=O)c3ccccc3S1(=O)=O)CC2 (stereo not drawn) [Example 1, 2-(N-(4-(1,1-Dioxido-3-oxo-2,3-dihydro-benzisothiazol-2-yl)butyl)amino)methyl-8-isopropoxy-chroman oxalate] | – | 1.1 nM | – | – | – | – |
| CC1(C)Cc2ccc3c(c2O1)OC(CNCCCCN1C(=O)c2ccccc2S1(=O)=O)CC3 (single isomer, unassigned) [Example 6] | 0.9 nM | – | 41% | 41% | 38% | – |
| CC1(C)Cc2ccc3c(c2O1)OC(CNCCCCN1C(=O)c2ccccc2S1(=O)=O)CC3 (racemic) [Example 5] | – | 0.5 nM | – | – | – | – |
